Experimental data as given in paper PMC9814779, “A triple farnesoid X receptor and peroxisome proliferator-activated receptor α/δ activator reverses hepatic fibrosis in diet-induced NASH in mice” (Communications Chemistry, 2020).
Read-outs that look alike come from different tables or passages of the source.

How the values were obtained:
Type in all cases: cell-based
Design in all cases: Emax: dose or concentration left out as unconfirmed
[1] = target: T1, human PPARα ligand-binding domain (Gal4 chimera) (Homo sapiens, UniProt Q07869); experiment: Gal4 hybrid reporter gene assay, PPARα; settings: for EC50: mean ± SEM
T1 construct: coding for the hinge region and LBD of the canonical isoform of the respective nuclear receptor; expressed in transfected cells; host or cells: HEK293T
T1 sequence (Q07869 239-466 limits assumed): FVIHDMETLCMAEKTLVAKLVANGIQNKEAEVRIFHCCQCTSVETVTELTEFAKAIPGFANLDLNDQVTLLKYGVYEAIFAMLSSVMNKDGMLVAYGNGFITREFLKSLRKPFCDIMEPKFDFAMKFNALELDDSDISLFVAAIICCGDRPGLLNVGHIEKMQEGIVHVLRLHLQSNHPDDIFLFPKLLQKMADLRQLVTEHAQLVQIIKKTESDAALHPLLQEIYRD

[2] = target: T2, human PPARδ ligand-binding domain (Gal4 chimera) (Homo sapiens, UniProt Q03181); experiment: Gal4 hybrid reporter gene assay, PPARδ; settings: for EC50: mean ± SEM
T2 construct: coding for the hinge region and LBD of the canonical isoform of the respective nuclear receptor; expressed in transfected cells; host or cells: HEK293T
T2 sequence (Q03181 211-439 limits assumed): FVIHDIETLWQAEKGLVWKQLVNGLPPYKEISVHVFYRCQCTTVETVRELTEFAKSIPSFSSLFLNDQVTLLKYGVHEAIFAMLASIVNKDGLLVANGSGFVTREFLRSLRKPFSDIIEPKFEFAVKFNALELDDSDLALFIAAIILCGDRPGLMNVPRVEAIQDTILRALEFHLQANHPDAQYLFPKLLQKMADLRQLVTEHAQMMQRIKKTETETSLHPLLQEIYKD

[3] = target: T3, human PPARγ ligand-binding domain (Gal4 chimera) (Homo sapiens, UniProt P37231); experiment: Gal4 hybrid reporter gene assay, PPARγ
T3 construct: coding for the hinge region and LBD of the canonical isoform of the respective nuclear receptor; expressed in transfected cells; host or cells: HEK293T
T3 sequence (P37231 238-503 limits assumed): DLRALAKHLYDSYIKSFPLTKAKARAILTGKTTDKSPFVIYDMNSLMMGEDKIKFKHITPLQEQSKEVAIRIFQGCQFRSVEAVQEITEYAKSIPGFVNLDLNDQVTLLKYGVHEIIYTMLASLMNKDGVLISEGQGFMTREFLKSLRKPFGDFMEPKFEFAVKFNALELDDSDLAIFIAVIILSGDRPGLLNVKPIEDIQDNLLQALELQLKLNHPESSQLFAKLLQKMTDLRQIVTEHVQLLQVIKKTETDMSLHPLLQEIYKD

[4] = target: T4, human FXR:retinoid X receptor (RXR) heterodimer (Homo sapiens, UniProt Q96RI1); experiment: Full-length FXR reporter gene assay (BSEP response element) in HeLa cells; settings: for EC50: mean ± SEM; for FXR max. rel. act.: Supplementary Table 1, relative to GW4064 at 3 µM; for Emax: read-out: max. rel. act. FXR
T4 construct: pcDNA3-hFXR[32] and pSG5-hRXR[33] served for receptor overexpression in the full-length FXR assay; expressed in transfected cells; host or cells: HeLa

[5] = PPAR EC50 [M], Supplementary Table 1, chromene derivatives, n ≥ 2
[6] = Supplementary Table 1, chromene derivatives, n ≥ 2, read-out: PPAR EC50
[7] = Supplementary Table 1, chromene derivatives, mean ± SEM, n ≥ 2, read-out: PPAR EC50
[8] = Supplementary Table 1, chromene derivatives, n ≥ 2, read-out: FXR EC50
[9] = EC50 [μM] PPARα, HEK293T, n = 3
[10] = EC50 [μM] PPARδ, HEK293T, n = 3
[11] = HeLa, n = 3, read-out: EC50 [μM] FXR
[12] = HEK293T, n = 3, read-out: EC50 [μM] PPARδ
[13] = HEK293T, mean ± SEM, n = 3, read-out: EC50 [μM] PPARγ

T4 sequence (P19793 whole entry): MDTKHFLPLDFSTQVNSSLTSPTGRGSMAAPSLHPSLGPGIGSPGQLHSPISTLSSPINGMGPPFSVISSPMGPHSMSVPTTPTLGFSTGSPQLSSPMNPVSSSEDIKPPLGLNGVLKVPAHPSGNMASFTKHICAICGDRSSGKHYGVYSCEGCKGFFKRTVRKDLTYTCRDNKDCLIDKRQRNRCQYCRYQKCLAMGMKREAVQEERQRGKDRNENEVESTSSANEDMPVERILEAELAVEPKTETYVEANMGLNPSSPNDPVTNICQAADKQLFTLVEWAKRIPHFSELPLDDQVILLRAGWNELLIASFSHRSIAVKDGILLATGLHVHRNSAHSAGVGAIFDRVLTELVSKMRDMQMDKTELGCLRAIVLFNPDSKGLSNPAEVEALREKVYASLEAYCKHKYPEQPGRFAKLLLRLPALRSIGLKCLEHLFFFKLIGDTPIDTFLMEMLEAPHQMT
T4 sequence (Q96RI1 whole entry): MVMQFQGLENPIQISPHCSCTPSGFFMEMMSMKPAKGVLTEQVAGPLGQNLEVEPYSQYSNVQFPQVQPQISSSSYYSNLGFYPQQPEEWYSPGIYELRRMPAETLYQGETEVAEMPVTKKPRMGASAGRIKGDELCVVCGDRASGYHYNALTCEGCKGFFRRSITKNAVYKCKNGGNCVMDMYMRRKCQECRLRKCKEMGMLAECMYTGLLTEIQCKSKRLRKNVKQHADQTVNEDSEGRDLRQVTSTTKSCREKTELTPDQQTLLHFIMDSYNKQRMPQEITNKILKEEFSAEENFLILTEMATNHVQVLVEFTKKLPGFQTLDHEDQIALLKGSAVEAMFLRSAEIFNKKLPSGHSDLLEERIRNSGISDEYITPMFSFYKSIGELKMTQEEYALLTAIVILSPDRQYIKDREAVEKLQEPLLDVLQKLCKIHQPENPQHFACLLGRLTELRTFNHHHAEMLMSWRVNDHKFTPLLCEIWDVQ

| Structure (SMILES) | EC50 [1, 5] [M] | Emax ([1]; read-out: PPAR max. rel. act.) [%] | EC50 [2, 6] [µM] | Emax ([2]; read-out: PPAR max. rel. act.) [%] | EC50 [3, 7] [µM] | Emax ([3]; read-out: PPAR max. rel. act.) [%] | EC50 [4, 8] [µM] | FXR max. rel. act. ([4]; n ≥ 2) [%] | EC50 [1, 9] [M] | Emax ([1]; read-out: max. rel. act. PPARα) [%] | EC50 [2, 10] [µM] | EC50 [3] [µM] | Emax ([3]; read-out: max. rel. act. PPARγ) [%] | Emax ([4]; HeLa) [%] | EC50 [4, 11] [µM] | Emax ([2]; read-out: max. rel. act. PPARδ) [%] | EC50 [2, 12] [µM] | EC50 [3, 13] [µM] | preference over PPARγ ([3]; triple FXR/PPARα/δ potency versus PPARγ) |
| --- | --- | --- | --- | --- | --- | --- | --- | --- | --- | --- | --- | --- | --- | --- | --- | --- | --- | --- | --- |
| O=C(O)CCc1cccc(NC(=O)c2ccccc2NC(=O)C2=Cc3ccccc3OC2)c1 [S1, 3-(3-[2-{2H-Chromene-3-carboxamido}benzamido]phenyl)propanoic acid] | 5.2e-06 ± 8e-07 | 26 ± 3 | 1.2 ± 0.1 | 26 ± 1 | 7.7 ± 0.6 | 6.6 ± 0.2 | 4.1 ± 0.8 | 14 ± 1 | – | – | – | – | – | – | – | – | – | – | – |
| O=C(O)CCc1cccc(NC(=O)c2ccccc2NC(=O)C2=C(Cl)c3ccccc3OC2)c1 [S2, 3-(3-[2-{4-Chloro-2H-chromene-3-carboxamido}benzamido]phenyl)propanoic acid] | 4.6e-07 ± 3e-08 | 31 ± 1 | 0.42 ± 0.01 | 31 ± 1 | 2.3 ± 0.1 | 9 ± 0.1 | 11 ± 1 | 16 ± 1 | – | – | – | – | – | – | – | – | – | – | – |
| Cc1cccc2c1C=C(C(=O)Nc1ccccc1C(=O)Nc1cccc(CCC(=O)O)c1)CO2 [S3, 3-(3-[2-{5-Methyl-2H-chromene-3-carboxamido}benzamido]phenyl)propanoic acid] | 8.3e-07 ± 1e-07 | 24 ± 1 | 0.67 ± 0.04 | 27 ± 1 | 8 ± 0.8 | 14 ± 1 | 4.3 ± 0.3 | 11 ± 1 | – | – | – | – | – | – | – | – | – | – | – |
| Cc1ccc2c(c1)C=C(C(=O)Nc1ccccc1C(=O)Nc1cccc(CCC(=O)O)c1)CO2 [S4, 3-(3-[2-{6-Methyl-2H-chromene-3-carboxamido}benzamido]phenyl)propanoic acid] | 8.4e-07 ± 1e-07 | 29 ± 1 | 1.5 ± 0.2 | 16 ± 1 | 5 ± 1.6 | 36 ± 8 | 5.4 ± 0.1 | 12 ± 1 | – | – | – | – | – | – | – | – | – | – | – |
| O=C(O)CCc1cccc(NC(=O)c2ccccc2NC(=O)C2=Cc3cc(F)ccc3OC2)c1 [S5, 3-(3-[2-{6-Fluoro-2H-chromene-3-carboxamido}benzamido]phenyl)propanoic acid] | 1.8e-06 ± 6e-07 | 20 ± 1 | 2.6 ± 0.8 | 20 ± 3 | 4.6 ± 0.8 | 17 ± 1 | > 10 | – | – | – | – | – | – | – | – | – | – | – | – |
| O=C(O)CCc1cccc(NC(=O)c2ccccc2NC(=O)C2=Cc3cc(Cl)ccc3OC2)c1 [S6] | 3.1e-06 ± 4e-07 | 27 ± 2 | 1.6 ± 0.5 | 14 ± 2 | 3 ± 0.5 | 5.1 ± 0.3 | > 10 | – | – | – | – | – | – | – | – | – | – | – | – |
| Cc1ccc2c(c1)OCC(C(=O)Nc1ccccc1C(=O)Nc1cccc(CCC(=O)O)c1)=C2 [S7] | 3.4e-06 ± 1e-07 | 38 ± 1 | 1.1 ± 0.1 | 30 ± 1 | 5 ± 1.6 | 7.9 ± 1.4 | > 10 | – | – | – | – | – | – | – | – | – | – | – | – |
| Cc1cccc2c1OCC(C(=O)Nc1ccccc1C(=O)Nc1cccc(CCC(=O)O)c1)=C2 [S8] | 3.5e-06 ± 2e-07 | 29 ± 1 | 1.2 ± 0.4 | 18 ± 2 | 3.1 ± 0.2 | 9.3 ± 0.5 | > 10 | – | – | – | – | – | – | – | – | – | – | – | – |
| O=C(O)CCc1cccc(NC(=O)c2ccccc2NC(=O)C2=Cc3cccc(Cl)c3OC2)c1 [S9] | 2.3e-06 ± 1e-07 | 35 ± 1 | 0.91 ± 0.36 | 16 ± 2 | 2.4 ± 0.2 | 7.6 ± 0.2 | > 10 | – | – | – | – | – | – | – | – | – | – | – | – |
| COc1cccc2c1OCC(C(=O)Nc1ccccc1C(=O)Nc1cccc(CCC(=O)O)c1)=C2 [S10] | 6.6e-06 ± 1.8e-06 | 26 ± 5 | 5.2 ± 0.2 | 30 ± 1 | 23 ± 2 | 8.6 ± 0.6 | 2.8 ± 0.3 | 14 ± 1 | – | – | – | – | – | – | – | – | – | – | – |
| O=C(O)CCc1cccc(NC(=O)c2ccccc2NC(=O)C2=Cc3cccc(O)c3OC2)c1 [S11] | > 3e-05 | – | > 30 | – | 7.9 ± 1.2 | 6.3 ± 0.5 | > 10 | – | – | – | – | – | – | – | – | – | – | – | – |
| O=C(O)Cc1ccccc1NC(=O)c1ccccc1NC(=O)c1ccc2ccccc2c1 [compound 7] | – | – | – | – | – | – | – | – | 1.4e-06 ± 1e-07 | 33 | > 10 | 1.7 ± 0.1 | 17 ± 10 | 31 | 9.2 ± 0.2 | – | – | – | – |
| O=C(O)CCc1cccc(NC(=O)c2ccccc2NC(=O)c2ccc3ccccc3c2)c1 [compound 9] | – | – | – | – | – | – | – | – | 1e-06 ± 2e-07 | 31 | 0.65 ± 0.03 | 2.6 ± 0.3 | 19 | 20 | 2.6 ± 0.3 | 28 | – | – | – |
| O=C(O)CCc1ccc(NC(=O)c2ccccc2NC(=O)c2ccc3ccccc3c2)cc1 [compound 12] | – | – | – | – | – | – | – | – | > 3e-05 | – | – | – | – | 21 ± 10 | 2.1 ± 0.1 | – | > 30 | > 30 | – |
| O=C(O)COc1cccc(NC(=O)c2ccccc2NC(=O)c2ccc3ccccc3c2)c1 [compound 13] | – | – | – | – | – | – | – | – | 1e-05 ± 1e-06 | 35 | 10 ± 1 | 19 ± 1 | 11 | 19 | 5 ± 1 | 43 | – | – | – |
| O=C(O)CNc1cccc(NC(=O)c2ccccc2NC(=O)c2ccc3ccccc3c2)c1 [compound 14] | – | – | – | – | – | – | – | – | > 3e-05 | – | – | – | 7.7 | 31 | 1.3 ± 0.1 | 83 | 3.5 ± 0.2 | 5.7 ± 0.1 | – |
| CC(C)(Nc1cccc(NC(=O)c2ccccc2NC(=O)c2ccc3ccccc3c2)c1)C(=O)O [compound 15] | – | – | – | – | – | – | – | – | 1.7e-06 ± 1e-07 | 71 | 3.6 ± 0.2 | 5.1 ± 0.9 | 18 | 10 | 0.45 ± 0.01 | 42 | – | – | – |
| CC(C)(C)c1ccc(C(=O)Nc2cccc(CCC(=O)O)c2)c(NC(=O)c2ccc3ccccc3c2)c1 [compound 24] | – | – | – | – | – | – | – | – | 3.1e-07 ± 8e-08 | 63 | – | 1.5 ± 0.1 | 20 | – | – | – | – | – | approximately fivefold preference over PPARγ |
| O=C(O)CCc1cccc(NC(=O)c2ccccc2NC(=O)c2ccc(-c3ccoc3)cc2)c1 [compound 32] | – | – | – | – | – | – | – | – | 1.6e-06 ± 3e-07 | 31 | – | 4.2 ± 0.9 | 38 | 20 | 0.23 ± 0.01 | – | – | – | – |
